Data on two compounds can be found in ChEMBL document CHEMBL4376854, “Investigation of the Adrenergic and Opioid Binding Affinities, Metabolic Stability, Plasma Protein Binding Properties, and Functional Effects of Selected Indole-Based Kratom Alkaloids” (J Med Chem, 2020).

For assay [1], the target named is T1, Kappa-type opioid receptor (Homo sapiens, UniProt P41145). Briefly: Displacement of [3H]U69,593 from human recombinant kappa opioid receptor expressed in rat RBL cell membranes incubated for 60 mins. Background: In a radioligand displacement assay an active substance lowers the binding of a labelled ligand.
T1 sequence (P41145 whole entry): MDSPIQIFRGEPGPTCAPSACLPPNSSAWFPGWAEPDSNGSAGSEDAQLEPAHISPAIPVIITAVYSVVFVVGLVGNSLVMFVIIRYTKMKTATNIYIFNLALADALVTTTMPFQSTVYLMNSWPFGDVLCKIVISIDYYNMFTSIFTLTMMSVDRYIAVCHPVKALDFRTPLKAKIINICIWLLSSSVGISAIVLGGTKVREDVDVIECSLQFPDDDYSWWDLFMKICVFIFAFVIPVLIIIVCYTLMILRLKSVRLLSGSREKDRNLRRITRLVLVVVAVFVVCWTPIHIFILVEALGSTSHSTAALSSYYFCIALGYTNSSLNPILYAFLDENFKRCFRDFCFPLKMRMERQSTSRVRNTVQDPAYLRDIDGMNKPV
The next assay relates to Rattus norvegicus. Put plainly: Antinociceptive activity in Sprague-Dawley rat dosed intravenously using cumulative dosing every 5 mins until rat maxed-out on hot plate by hot plate test. The format is functional. Conditions: iv. (In hot-plate and tail-flick tests a longer latency is read as antinociception.)
The target of assay [2] is T2, Alpha-2A adrenergic receptor (Homo sapiens) (UniProt P08913).
T2 sequence (whole entry): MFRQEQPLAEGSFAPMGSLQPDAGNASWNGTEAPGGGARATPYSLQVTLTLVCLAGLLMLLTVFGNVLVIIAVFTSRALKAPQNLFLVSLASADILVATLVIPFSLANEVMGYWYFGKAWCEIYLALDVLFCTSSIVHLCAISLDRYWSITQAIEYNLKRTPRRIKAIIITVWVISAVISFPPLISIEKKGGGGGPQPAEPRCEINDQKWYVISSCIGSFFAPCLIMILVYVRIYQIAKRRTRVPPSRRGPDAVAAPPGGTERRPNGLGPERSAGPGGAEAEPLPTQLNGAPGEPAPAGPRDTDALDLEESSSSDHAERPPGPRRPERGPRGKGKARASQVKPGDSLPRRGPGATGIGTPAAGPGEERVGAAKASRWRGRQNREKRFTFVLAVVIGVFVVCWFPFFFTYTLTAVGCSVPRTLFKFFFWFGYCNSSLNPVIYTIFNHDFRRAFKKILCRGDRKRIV
Particulars: CHO, 100 nM.

The target in assay [3] is T1, Kappa-type opioid receptor. Particulars: 100 nM.
Assay [4] has as its target T3, Alpha-1D adrenergic receptor (Homo sapiens) (UniProt P25100).
T3 sequence (whole entry): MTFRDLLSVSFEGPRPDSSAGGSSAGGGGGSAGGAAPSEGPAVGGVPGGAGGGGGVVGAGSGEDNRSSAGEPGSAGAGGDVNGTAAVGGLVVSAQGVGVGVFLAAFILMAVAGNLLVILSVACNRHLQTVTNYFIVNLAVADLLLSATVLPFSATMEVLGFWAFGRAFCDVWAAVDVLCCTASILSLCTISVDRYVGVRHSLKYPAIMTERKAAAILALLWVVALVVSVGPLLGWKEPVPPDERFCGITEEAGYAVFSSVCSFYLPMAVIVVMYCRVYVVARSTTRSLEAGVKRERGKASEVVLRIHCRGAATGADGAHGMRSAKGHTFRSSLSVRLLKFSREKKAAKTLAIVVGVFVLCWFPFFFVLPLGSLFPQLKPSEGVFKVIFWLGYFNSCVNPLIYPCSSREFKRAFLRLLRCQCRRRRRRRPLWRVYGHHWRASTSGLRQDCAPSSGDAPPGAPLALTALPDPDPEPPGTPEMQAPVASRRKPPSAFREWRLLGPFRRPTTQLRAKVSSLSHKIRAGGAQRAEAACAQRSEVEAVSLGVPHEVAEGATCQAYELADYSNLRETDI
Conditions: CHO, 10000 nM.

The target in assay [5] is T4, Alpha-2B adrenergic receptor (Homo sapiens) (UniProt P18089).
T4 sequence (whole entry): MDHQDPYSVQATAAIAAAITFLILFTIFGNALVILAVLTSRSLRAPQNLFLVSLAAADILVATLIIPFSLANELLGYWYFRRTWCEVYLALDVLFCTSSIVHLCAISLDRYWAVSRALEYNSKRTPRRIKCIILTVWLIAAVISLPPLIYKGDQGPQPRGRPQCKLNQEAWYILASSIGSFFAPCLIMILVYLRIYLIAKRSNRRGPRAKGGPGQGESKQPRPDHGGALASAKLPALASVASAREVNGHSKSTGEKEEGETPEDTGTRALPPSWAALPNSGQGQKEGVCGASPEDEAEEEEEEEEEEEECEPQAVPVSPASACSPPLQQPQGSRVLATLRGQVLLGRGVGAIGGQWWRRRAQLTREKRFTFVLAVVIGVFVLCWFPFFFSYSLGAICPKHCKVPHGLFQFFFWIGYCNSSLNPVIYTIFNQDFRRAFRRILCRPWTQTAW
Particulars: CHO, 10000 nM.

Assay [6] addresses T5, Alpha-1D adrenergic receptor (Homo sapiens, UniProt P25100).
T5 sequence (P25100 whole entry): T3 sequence (whole entry)
Briefly: Displacement of [3H]prazosin from human recombinant adrenergic alpha-1D receptor expressed in CHO cell membranes incubated for 60 mins.

Assay [7] deals with T6, Alpha-2B adrenergic receptor (Homo sapiens, UniProt P18089).
T6 sequence (P18089 whole entry): T4 sequence (whole entry)
Put plainly: biochemical. Format: cell-based, CHO.

Assay [8] has as its target T7, Alpha-1A adrenergic receptor (Homo sapiens) (UniProt P35348).
T7 sequence (whole entry): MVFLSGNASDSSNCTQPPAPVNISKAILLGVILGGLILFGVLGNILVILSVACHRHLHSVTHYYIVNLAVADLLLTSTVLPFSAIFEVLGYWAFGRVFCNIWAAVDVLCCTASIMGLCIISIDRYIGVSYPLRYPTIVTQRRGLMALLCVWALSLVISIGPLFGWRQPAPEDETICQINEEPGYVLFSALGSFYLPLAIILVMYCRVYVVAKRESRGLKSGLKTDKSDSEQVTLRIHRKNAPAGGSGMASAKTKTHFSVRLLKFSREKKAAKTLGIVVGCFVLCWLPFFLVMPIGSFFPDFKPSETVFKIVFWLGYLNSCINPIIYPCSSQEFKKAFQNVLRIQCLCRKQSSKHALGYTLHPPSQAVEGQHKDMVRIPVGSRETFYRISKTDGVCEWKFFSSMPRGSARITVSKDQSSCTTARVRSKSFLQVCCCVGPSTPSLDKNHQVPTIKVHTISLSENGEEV
Put plainly: Partial agonist activity at human recombinant adrenergic alpha-1A receptor expressed in CHO cells assessed as stimulation of intracellular calcium levels incubated at room temperature by fluorimetry. The format is functional, cell-based. A general note: Calcium flux is commonly read through the fluorescence of an indicator in the cells.

Assay [9] deals with T8, Alpha-2A adrenergic receptor (Homo sapiens, UniProt P08913).
T8 sequence (P08913 whole entry): T2 sequence (whole entry)
Put plainly: biochemical.

In assay [10] the target is T9, Alpha-2C adrenergic receptor (Homo sapiens, UniProt P18825).
T9 sequence (P18825 whole entry): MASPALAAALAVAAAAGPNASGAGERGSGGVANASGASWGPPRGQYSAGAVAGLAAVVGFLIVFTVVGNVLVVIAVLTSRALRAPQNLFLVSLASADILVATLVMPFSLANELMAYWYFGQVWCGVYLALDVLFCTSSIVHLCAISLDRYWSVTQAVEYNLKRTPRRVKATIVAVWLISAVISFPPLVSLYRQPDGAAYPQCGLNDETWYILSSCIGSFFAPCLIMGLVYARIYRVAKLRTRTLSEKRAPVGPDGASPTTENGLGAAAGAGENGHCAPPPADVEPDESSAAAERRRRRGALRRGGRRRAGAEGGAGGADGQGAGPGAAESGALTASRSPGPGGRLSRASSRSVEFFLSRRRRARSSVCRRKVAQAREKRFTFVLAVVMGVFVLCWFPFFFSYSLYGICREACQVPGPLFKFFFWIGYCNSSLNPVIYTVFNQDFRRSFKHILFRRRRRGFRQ
Put plainly: biochemical.

Calls of active or inactive are those of the source. The calls are words filed in the database; no cut-off is given here.

Turning to `CC[C@@H]1CN2CCc3c([nH]c4cccc(OC)c34)[C@H]2C[C@@H]1/C(=C\OC)C(=O)OC`, the inhibition constant Ki (commonly the equilibrium dissociation constant of an inhibitor or competing ligand from its target) in assay [1] was determined as 0.116 µM. Further, the ED50 (usually the dose that gives a 50% effect, or the effect in half of the subjects) with Rattus norvegicus was found to be 6.25 mg/kg. In addition, the inhibition (usually the relative decrease from the control value, in per cent) in assay [2] was determined as 7%; in [3] it was 61.9%; in assay [4] it was 70.5%; in assay [5], 67.2%.
As for `CC[C@@H]1CN2CCc3c([nH]c4cccc(OC)c34)[C@@H]2C[C@@H]1/C(=C\OC)C(=O)OC`, the Ki in assay [1] is 0.198 µM; in assay [6], 5.48 µM; in assay [7], 9.29 µM; in assay [9], 4.72 µM; in assay [10] it was 2.32 µM. Moreover, the result in assay [8] was Active. Moreover, the inhibition in [2] was -8%; in assay [3], 25.2%; in [4] it was 57.9%; in assay [5], 25.1%.
